Consider eleven molecules from patent US11066668B2, “Compositions and methods for modulation of IKBKAP splicing” (Ionis Pharmaceuticals, Inc., priority 2012, dated 2021).

Oligonucleotides are written 5' to 3', each unit as a sugar letter and its base; * is a phosphorothioate linkage, no mark a phosphodiester; rarer units and linkages stand in square brackets, end groups in braces. Plain capitals give the bases only. e = 2'-O-(2-methoxyethyl) (MOE); [5mC] = 5-methylcytosine

What all share (assay type): cell-based, human
In series [1] the test system is IKBKAP mRNA in GM04899 fibroblasts. Nature of the series: Exon 20 inclusion in FD patient skin fibroblast line GM04899 (RT-PCR). The conditions noted are these: GM04899, kinetin treatment for 3 days, concentration not given; relative to IMR90 cells (100%). As to the method:
To investigate the effect of ISIS 421992 on patient-derived fibroblasts, the patient skin fibroblast line GM04899 (Coriell Cell Repository) was utilized. The cell line was derived from an individual homozygous for the major FD mutation.
GM04899 was cultured in minimal essential medium (Invitrogen) supplemented with non-essential amino acids (Invitrogen) and 20% (v/v) fetal bovine serum. The cells were grown to 40-50% confluence in 10-cm dishes. Cells were transfected with 2 nM, 5 nM, 25 nM, or 125 nM concentrations of ISIS 421992 using 12 μL Lipofectamine 2000 transfection reagent (Invitrogen). Two days later, cDNA synthesized from total RNA extracted from HEK-293 cells was amplified using the forward primer pCDNAF and reverse primer sequence IKAP21R4 to assay the splicing pattern of expressed RNAs by RT-PCR. To calculate exon 20 inclusion levels, the PCR amplicons were labeled with α^32P-dCTP. The PCR products were then separated by native PAGE, followed by phosphorimage analysis. The band intensities were quantified and values were normalized for the G+C content according to the DNA sequence. Multiple lanes for each condition represent independent experiments.
A batch of cells was treated with solvent (NaOH) only of the kinetin solution as a control. RNA from IMR90, a wild-type normal diploid lung fibroblast cell line was used as positive control. The results are expressed as percent inclusion of exon 20 compared to the exon 20 inclusion (100%) of IKBKAP mRNA in IMR90 cells.

For series [2], the system named is IKAP protein. Nature of the series: IKAP protein levels in GM04899 fibroblasts (SDS-PAGE, anti-IKAP antibody, band intensity). The protocol: Protein samples were obtained by Trizol extraction and separated by SDS-PAGE. The bands were transferred onto a nitrocellulose membrane and probed with an anti-IKAP antibody (abcam #ab56362) (1:1,000 dilution in 5% milk in TBST) for 12 hrs. The membrane was washed 5 times with TBST for 5 min each and then probed with secondary antibody 800 nm LiCor (1:5,000 in 5% milk in TBST) for 1 hr in the dark. The membrane was subsequently washed 5 times with TBST for 5 min each. The bands were then exposed at 800 nm and band intensity was quantified using an Odyssey (LiCor) instrument. The results are presented in Table 4 as percent increase in band intensity compared to the control oligonucleotide-treated bands.

Series [3] concerns IKBKAP pre-mRNA (mt19-21 minigene). Nature of the series: Exon 20 inclusion in HEK-293 cells harboring the mt19-21 IKBKAP minigene (RT-PCR). The conditions noted are these: HEK-293 with mt19-21 minigene; for effect on exon 20 inclusion/skipping, in words: 0.007 nmol oligonucleotide; for % inclusion (exon 20): 0.007 nmol oligonucleotide by electroporation, RT-PCR two days later. The protocol:
Antisense oligonucleotides were designed targeting a human IKBKAP nucleic acid and were tested for their effects on IKBKAP pre-mRNA in vitro. Together, the overlapping antisense oligonucleotides spanned the entire 74-nucleotide region of the IKBKAP exon 20 sequence, as well as the 100-nucleotide intronic regions immediately upstream and downstream of exon 20. The antisense oligonucleotides are presented in Table 1, and were designed as uniform 2′-O-methoxyethyl ribose (MOE) oligonucleotides with phosphate backbones. Each oligonucleotide is 15 nucleosides in length. All cytosine residues throughout the oligonucleotide are 5-methylcytosines. ‘Start Site’ indicates the 5′-most nucleoside to which the oligonucleotide is targeted in the human gene sequence. “Stop site” indicates the 3′-most nucleoside to which the oligonucleotide is targeted in the human gene sequence. Each oligonucleotide listed in Table 1 is targeted to the human IKBKAP genomic sequence (the complement of GENBANK Accession No NT_008470.16 truncated from nucleotides 13290828 to Ser. No. 13/358,424, designated herein as SEQ ID NO: 1). ISIS 414161 has one mismatch with SEQ ID NO: 1.
Cultured HEK-293 cells harboring the mt19-21 minigene vector construct at a density of 7×10^5 cells per well were transfected using electroporation (Gene Pulsar II apparatus, Bio-Rad) with 0.007 nmol antisense oligonucleotide, as previously described (Hua, Y., et al., 2007. PLoS Biol 5:e73). […] These oligonucleotides served as controls for non-specific effects of uniform MOE oligonucleotides with phosphate backbones. Cells harboring the wt19-21 minigene and the mt19-21 minigene alone were also cultured and were used as controls for exon 20 inclusion levels. Two days later, cDNA synthesized from total RNA extracted from HEK-293 cells was amplified using the forward primer pCDNAF and reverse primer sequence IKAP21R4 to assay the splicing pattern of expressed RNAs by RT-PCR. To calculate exon 20 inclusion levels, the PCR amplicons were labeled with α^32P-dCTP. The PCR products were then separated by native PAGE, followed by phosphorimage analysis on a FUJIFILM FLA-5100 instrument (Fuji Medical Systems USA Inc.). The band intensities were quantified using Multi Gauge software Version 2.3 (FUJIFILM), and values were normalized for the G+C content according to the DNA sequence.
Treatment with antisense oligonucleotides targeting the 3′ and 5′ splice sites caused increased skipping of exon 20.
Additional oligonucleotides were designed targeting the first 30-nucleotide stretch of ISS-40. These oligonucleotides were designed by choosing sequences shifted in one nucleotide increments upstream and downstream (i.e., a “microwalk”) of ISS-40, starting from the +6 position in exon 20. The antisense oligonucleotides are presented in Table 2 and FIG. 4D, and were designed as uniform 2′-O-methoxyethyl ribose (MOE) oligonucleotides with phosphate backbones. Each oligonucleotide is 20 nucleosides in length. All cytosine residues throughout the oligonucleotide are 5-methylcytosines. ‘Start Site’ indicates the 5′-most nucleoside to which the oligonucleotide is targeted in the human gene sequence. “Stop site” indicates the 3′-most nucleoside to which the oligonucleotide is targeted in the human gene sequence. Each oligonucleotide listed in Table 2 is targeted to intron 20 of the human IKBKAP genomic sequence (the complement of GENBANK Accession No NT_008470.16 truncated from nucleotides 13290828 to Ser. No. 13/358,424, designated herein as SEQ ID NO: 1). These oligonucleotides were tested in vitro.
Cultured HEK-293 cells harboring the mt19-21 minigene vector construct at a density of 7×10^5 cells per well were transfected using electroporation (Gene Pulsar II apparatus, Bio-Rad) with 0.007 nmol antisense oligonucleotide, as previously described (Hua, Y., et al., 2007. PLoS Biol 5:e73). […]

With `c1coc(CNc2ncnc3nc[nH]c23)c1` [kinetin, 6-furfurylaminopurine, reference compound], the “% inclusion of exon 20” value in series [1] came out at 98%. Also, the “IKAP protein levels, in words” value in series [2] (GM04899, kinetin, under these conditions) was “did not increase IKAP protein levels”. The “Percent increase in protein band intensity (IKAP)” value in series [2] (GM04899, kinetin-treated, compared to control oligonucleotide-treated bands) was 11%.

Consider “ISIS 414135: uniform 2′-MOE 15-mer, phosphate backbone; CAGGATACACCATTT, SEQ ID NO 14, intron 19 (e[5mC]eAeGeGeAeTeAe[5mC]eAe[5mC]e[5mC]eAeTeTeT; splice-switching)”, for which, in series [3], the “effect on exon 20 inclusion/skipping, in words” value is recorded as “positive effect on exon 20 inclusion”. The “% inclusion (exon 20)” value in series [3] (Table 1) turned out to be 46%.

For “ISIS 414142: uniform 2′-MOE 15-mer, phosphate backbone; AACATTTTTAATTAA, SEQ ID NO 21, intron 19 (eAeAe[5mC]eAeTeTeTeTeTeAeAeTeTeAeA; splice-switching)”, in series [3] (Table 1), the “% inclusion (exon 20)” value amounted to 23%.

With “ISIS 421994: uniform 2′-MOE 20-mer, phosphate backbone; TAGTCGCAAACAGTACAATG, SEQ ID NO 63, intron 20 (eTeAeGeTe[5mC]eGe[5mC]eAeAeAe[5mC]eAeGeTeAe[5mC]eAeAeTeG; splice-switching)”, the “% inclusion (exon 20)” value in series [3] (Table 2 (microwalk experiment)) is listed as 91%.

Take “ISIS 414129: uniform 2′-MOE 15-mer, phosphate backbone, 5-methylcytosines; AGAGAATTACCACAA, SEQ ID NO 8, intron 19 (eAeGeAeGeAeAeTeTeAe[5mC]e[5mC]eAe[5mC]eAeA; splice-switching)”: the “% inclusion (exon 20)” value in series [3] (Table 1) came out at 23%.

On to “ISIS 414150: uniform 2′-MOE 15-mer, phosphate backbone; ATGAACAACTTCTAA, SEQ ID NO 29, exon 20 (eAeTeGeAeAe[5mC]eAeAe[5mC]eTeTe[5mC]eTeAeA; splice-switching)”, for which, in series [3] (Table 1), the “% inclusion (exon 20)” value came to 5%.

In the case of “ISIS 414158: uniform 2′-MOE 15-mer, phosphate backbone; CCAACCACTTCCGAA, SEQ ID NO 37, exon 20 (e[5mC]e[5mC]eAeAe[5mC]e[5mC]eAe[5mC]eTeTe[5mC]e[5mC]eGeAeA; splice-switching)”, the “% inclusion (exon 20)” value in series [3] (Table 1) is 1%.

As for “ISIS 414163: uniform 2′-MOE 15-mer, phosphate backbone; ACTAGTCGCAAACAG, SEQ ID NO 42, intron 20 (eAe[5mC]eTeAeGeTe[5mC]eGe[5mC]eAeAeAe[5mC]eAeG; splice-switching)”, the “effect on exon 20 inclusion/skipping, in words” value in series [3] is listed as “markedly increased inclusion of exon 20”. The “% inclusion (exon 20)” value in series [3] (Table 1) and in series [3] (Table 2 (microwalk experiment)) was 74% in each case.

Regarding “ISIS 414157: uniform 2′-MOE 15-mer, phosphate backbone; CACTTCCGAATCTGA, SEQ ID NO 36, exon 20 (e[5mC]eAe[5mC]eTeTe[5mC]e[5mC]eGeAeAeTe[5mC]eTeGeA; splice-switching)”, the “% inclusion (exon 20)” value in series [3] (Table 1) came to 15%.

“ISIS 414159: uniform 2′-MOE 15-mer, phosphate backbone; TTGTCCAACCACTTC, SEQ ID NO 38, exon 20 (eTeTeGeTe[5mC]e[5mC]eAeAe[5mC]e[5mC]eAe[5mC]eTeTe[5mC]; splice-switching)”: the “% inclusion (exon 20)” value in series [3] (Table 1) is 2%.

On to “ISIS 414134: uniform 2′-MOE 15-mer, phosphate backbone; TACACCATTTTACCT, SEQ ID NO 13, intron 19 (eTeAe[5mC]eAe[5mC]e[5mC]eAeTeTeTeTeAe[5mC]e[5mC]eT; splice-switching)”, for which the “% inclusion (exon 20)” value in series [3] (Table 1) was 25%.
